“Also recorded” adds a separate entry of the source.
Key:
sensory panel [1] = assay: Sensory triangle test in chicken broth (kokumi intensity, taste profile); conditions: for kokumi taste (found or not): tested as described in Example 1 (chicken broth), concentration not given; for Sensory descriptors / effect on mouthfulness and complexity of the taste profile / Kokumi intensity (0-5): chicken broth; for Sensory descriptors / Kokumi intensity (0-5): pH 6.5; for Kokumi intensity (0-5): scale 0 to 5 (5 most intensive), negative control 2
Procedure: (§1) Unless otherwise indicated, all sensory tests are triangle tests and are performed according to the guidelines in “Amtliche Sammlung von Untersuchungsverfahren nach §35 LMBG (Lebensmittel-und Bedarfsgegenständegesetz)”; L 00.90 7, Untersuchung von Lebensmitteln, Sensorische Prüfverfahren, Dreiecksprüfung (Übemahme der gleichnahmigen Deutschen Norm DIN ISO 4120, Ausgabe January 1995), as follows:
The sensory panel is trained to evaluate the taste of aqueous solutions (4 ml each) of the following standard taste compounds by using a triangle test as described in the literature (Wieser and Belitz, Z. Lebensm. Unters. Forsch., 1975, 159, 65-72): sucrose (40 mmol/L) for sweet taste; citric acid (5 mmol/L) for sour taste; NaCl (12 mmol/L salty taste; caffeine (2 mmol/L) for bitter taste; and monosodium glutamate (MSG; 6 mmol/L) for umami taste. For kokumi taste, a solution of glutathione (10 mmol/L) in diluted chicken broth concentrate (Goumet Bouillon Huhn, Maggi, Singen, Germany; 3 g/100 g bottled water (Evian®)) is prepared and compared to the taste of chicken broth with no glutathione added.
(§2) All sensory analyses are performed in a sensory panel room at 22-25° C. over three different sessions by a trained panel of 8 to 10 individuals.
(§3) For recording the taste profiles, samples are prepared as indicated in the examples below. Taste profiles of samples are determined in a triangle test in three different sessions. Panellists refrain from eating or drinking for at least 1 hour prior to the session. At the start of the session and before each trial, the subject rinsed with water and expectorated. The participants receive a set of two blanks and one taste sample. Liquid samples are swirled around in the mouth briefly and expectorated. Solid samples are chewed for 20 seconds and then expectorated. […] Each sample with additive is compared to two reference samples without additives. Kokumi intensity is rated from 0-5 according to a scale from 0 to 5 (with 5 most intensive). The additive is added to a consumable and the sample is homogenised. The samples are presented to the sensory panel directly after homogenisation. The sensory panel included 8 trained individuals with exception of example 2, here the panel consists of 10 trained individuals.
Chicken Broth is prepared by dilution of 3 g chicken broth concentrate (Gourmet Bouillon Huhn; Maggi, Singen, Germany) with 100 ml water (Evian). Additives are added as specified in table below.
The pH-value of all samples is adjusted to 6.5 using formic acid (0.1 moVL) or sodium hydroxide (0.1 mol/L).
For each sample, kokumi intensity is rated and panelists are asked to describe sensory characteristics.
Compounds of formula I as listed in the table below are tested in chicken broth (prepared as described in example 1) and compared to hGSH.

sensory panel [2] = assay: Sensory triangle test in tomato juice; conditions: for Test results (sensory description vs reference): listed as γ-Glu-Cys-β-Ala
Procedure: as §1, §2, §3
Glutathione and homoglutathione are added to tomato juice (Albi, Germany) in the concentrations indicated below.

sensory panel [3] = assay: Sensory triangle test in ketchup; conditions: 2500 ppm; for Test results (sensory description vs reference): ketchup (Kraft)
Procedure: as §1, §2, §3
Glutathione (GSH) and homoglutathione (hGSH) are added to ketchup (Kraft) in a concentration of 2500 ppm.

sensory panel [4] = assay: Sensory triangle test in cream cheese; conditions: 1000 ppm
Description: The sensory panel included 8 trained individuals with exception of example 2, here the panel consists of 10 trained individuals.
The mixture is stirred until homogeneous.

N[C@@H](CSSC[C@H](N)C(=O)O)C(=O)O [Cys-S—S-Cys]
kokumi taste (found or not) (sensory panel [1]): not to have a kokumi taste

NC(=O)CC[C@H](N)C(=O)O [Gln]
kokumi taste (found or not) (sensory panel [1]): not to have a kokumi taste

NC(=O)C[C@H](N)C(=O)O [Asn]
kokumi taste (found or not) (sensory panel [1]): not to have a kokumi taste

NCCC(=O)O [β-Ala]
kokumi taste (found or not) (sensory panel [1]): not to have a kokumi taste

N[C@@H](CCC(=O)O)C(=O)O [Glu]
kokumi taste (found or not) (sensory panel [1]): not to have a kokumi taste

N[C@@H](CCC(=O)O)C(=O)[O-].[Na+] [MSG, mono sodium glutamate]
Sensory descriptors (sensory panel [1]; additive 10 mmol/L): higher umami (taste of MSG) intensity; also recorded: Increased umami taste
effect on mouthfulness and complexity of the taste profile (sensory panel [1]; positive control 10 mmol/L): no effect on mouthfulness and complexity

N[C@@H](CCC(=O)N[C@@H](CS)C(=O)NCCC(=O)O)C(=O)O [hGSH, Gamma-L-glutamyl-L-cysteinyl-beta-alanine]
Sensory descriptors (sensory panel [1]; additive 10 mmol/L): increases the mouthfulness, complexity, and long lasting taste sensation
Kokumi intensity (0-5) (sensory panel [1]; additive 10 mmol/L): 4.0
panelists preferring the sample (sensory panel [2]; 250 ppm): 7 out of 8 panelists
Test results (sensory description vs reference) (sensory panel [2]; 250 ppm): more intensive and well-balanced kokumi taste
Test results (sensory description vs reference) (sensory panel [2]; 5000 ppm): even more pronounced kokumi sensation compared to an isoconcentrated glutathione sample
Test results (sensory description vs reference) (sensory panel [3]): more meaty, bouillon-like, and intensified overall taste
panelists indicating more meaty, bouillon-like, and intensified overall taste (sensory panel [3]; ketchup): 7 out of 8 panelists
Test results (sensory description vs reference) (sensory panel [4]; cream cheese (Philadelphia, Kraft)): more mouthfulness, richness, and kokumi-like complexity
panelists finding the sample different from the reference sample and preferred (sensory panel [4]; cream cheese): 9 out of a panel of 10

[Cl-].[Na+] [NaCl]
Sensory descriptors (sensory panel [1]; additive 30 mmol/L): increased salt taste
Sensory descriptors (sensory panel [1]; additive 30 mmol/L, listed as NaCI): more salty than the negative control
Kokumi intensity (0-5) (sensory panel [1]; additive 30 mmol/L): 2
effect on mouthfulness and complexity of the taste profile (sensory panel [1]; positive control 30 mmol/L): no effect on mouthfulness and complexity

N[C@@H](CC(=O)O)C(=O)O [Asp]
kokumi taste (found or not) (sensory panel [1]): not to have a kokumi taste

C[C@H](N)C(=O)O [Ala]
kokumi taste (found or not) (sensory panel [1]): not to have a kokumi taste

N[C@@H](CS)C(=O)O [Cys]
kokumi taste (found or not) (sensory panel [1]): not to have a kokumi taste

N[C@@H](CCC(=O)N[C@@H](CS)C(=O)NCC(=O)O)C(=O)O [GSH, Gamma-L-glutamyl-L-cysteinyl-glycine]
Test results (sensory description vs reference) (sensory panel [3]): the observed effect is lower
